Source: ChEMBL document CHEMBL5608201, “Discovery and optimization of thiazole-based quorum sensing inhibitors as potent blockers of Pseudomonas aeruginosa pathogenicity” (Eur J Med Chem, 2024)
Converted amounts (≈) assume the structure as drawn.

Key:
[1] = target: T1, Transcriptional regulator MvfR (Pseudomonas aeruginosa PA14, UniProt A0A072ZLE6); experiment: Inverse agonist activity at Pseudomonas aeruginosa PqsR extracted from Escherichia coli Dh5alpha co-expressing lacZ incubated with test compound in presence of pseudomonas quinolone signal (PQS) by ONPG/heterologous reporter gene assay
T1 sequence (A0A072ZLE6 whole entry): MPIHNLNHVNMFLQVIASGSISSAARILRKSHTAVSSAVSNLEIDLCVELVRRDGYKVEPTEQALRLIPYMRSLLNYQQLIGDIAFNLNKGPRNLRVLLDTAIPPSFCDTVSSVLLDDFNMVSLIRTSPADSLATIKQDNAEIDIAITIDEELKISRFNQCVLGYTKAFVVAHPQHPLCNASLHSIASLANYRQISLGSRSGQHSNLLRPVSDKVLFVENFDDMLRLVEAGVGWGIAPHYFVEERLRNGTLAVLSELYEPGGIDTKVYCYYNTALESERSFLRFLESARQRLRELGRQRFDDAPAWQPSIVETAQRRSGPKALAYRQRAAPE

[2] = Metabolic stability in mouse liver microsomes assessed as half life at 1 uM measured after 30 mins by HPLC-MS/MS analysis; assay type: ADME, Microsome
[3] = Metabolic stability in human liver S9 fraction assessed as half life; assay type: ADME, subcellular
[4] = Cytotoxicity against human HepG2 cells assessed as viable cells; assay type: toxicity, cell-based; conditions: read-out: LD50 (the source's name)
Cytochrome P450 2D6 = Cytochrome P450 2D6 (Homo sapiens, UniProt P10635); experiment: Inhibition of CYP2D6 (unknown origin); assay type: ADME
CYP1A = target: T2, CYP1A (Homo sapiens, UniProt P04798+P05177); experiment: Inhibition of CYP1A (unknown origin); assay type: ADME, protein assay
T2 sequence (P04798 whole entry): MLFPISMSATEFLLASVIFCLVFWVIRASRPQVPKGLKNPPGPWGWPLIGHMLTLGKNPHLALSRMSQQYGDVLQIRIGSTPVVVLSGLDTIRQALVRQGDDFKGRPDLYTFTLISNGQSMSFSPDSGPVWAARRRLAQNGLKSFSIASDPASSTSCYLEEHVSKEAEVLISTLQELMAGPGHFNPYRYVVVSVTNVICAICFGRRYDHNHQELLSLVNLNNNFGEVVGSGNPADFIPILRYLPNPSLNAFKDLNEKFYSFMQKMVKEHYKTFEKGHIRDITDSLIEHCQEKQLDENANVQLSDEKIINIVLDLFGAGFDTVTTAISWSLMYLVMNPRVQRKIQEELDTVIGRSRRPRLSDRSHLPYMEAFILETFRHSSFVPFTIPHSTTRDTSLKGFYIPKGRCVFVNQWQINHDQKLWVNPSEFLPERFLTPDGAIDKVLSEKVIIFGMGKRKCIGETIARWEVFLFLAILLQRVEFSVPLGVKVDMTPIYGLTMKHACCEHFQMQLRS
T2 sequence (P05177 whole entry): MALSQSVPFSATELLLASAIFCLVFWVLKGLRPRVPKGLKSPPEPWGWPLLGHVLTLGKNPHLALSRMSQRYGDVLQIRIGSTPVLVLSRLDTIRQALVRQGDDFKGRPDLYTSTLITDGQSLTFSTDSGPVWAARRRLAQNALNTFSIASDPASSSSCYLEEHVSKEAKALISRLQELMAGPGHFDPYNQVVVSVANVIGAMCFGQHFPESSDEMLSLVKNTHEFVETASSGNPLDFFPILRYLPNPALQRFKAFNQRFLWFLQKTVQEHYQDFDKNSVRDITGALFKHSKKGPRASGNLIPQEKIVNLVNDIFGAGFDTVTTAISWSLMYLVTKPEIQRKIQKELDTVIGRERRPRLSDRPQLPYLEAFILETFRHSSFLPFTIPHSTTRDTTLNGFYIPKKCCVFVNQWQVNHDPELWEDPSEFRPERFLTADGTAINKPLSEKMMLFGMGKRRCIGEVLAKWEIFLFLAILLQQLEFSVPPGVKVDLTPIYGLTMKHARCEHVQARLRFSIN

[5] = Cytotoxicity against human HEK293 cells assessed as viable cells; assay type: toxicity, cell-based; conditions: read-out: LD50 (the source's name)
[6] = Kinetic aqueous solubility of the compound in PBS buffer incubated for 5 mins by turbidimetric aqueous solubility assay; assay type: physicochemical; conditions: read-out: Kinetic_solubility
[7] = Plasma protein binding in mouse; assay type: ADME, cell-free; conditions: read-out: PPB
[8] = Lipophilicity, log D of the compound; assay type: physicochemical; conditions: octanol/water
Cytochrome P450 2C9 = Cytochrome P450 2C9 (Homo sapiens, UniProt P11712); experiment: Inhibition of CYP2C9 (unknown origin); assay type: ADME
Pseudomonas aeruginosa = experiment: Antivirulence activity against Pseudomonas aeruginosa PA14 assessed as inhibition of pyocyanin biosynthesis incubated for 16 hrs under agitation by photometric analysis; assay type: functional, organism-based; conditions: PA14, 16 h
[9] = target: Voltage-gated inwardly rectifying potassium channel KCNH2 (Homo sapiens, UniProt Q12809); experiment: Inhibition of hERG; assay type: toxicity
[10] = Cytotoxicity against human HEK293 cells assessed as viable cells at 25 uM relative to control; assay type: toxicity, cell-based; conditions: read-out: Activity
[11] = Plasma protein binding in human; assay type: ADME, cell-free; conditions: read-out: PPB
[12] = Cytotoxicity against human HepG2 cells assessed as viable cells at 25 uM relative to control; assay type: toxicity, cell-based; conditions: read-out: Activity
Cytochrome P450 3A4 = Cytochrome P450 3A4 (Homo sapiens, UniProt P08684); experiment: Inhibition of CYP3A4 (unknown origin); assay type: ADME
Cytochrome P450 2C19 = Cytochrome P450 2C19 (Homo sapiens, UniProt P33261); experiment: Inhibition of CYP2C19 (unknown origin); assay type: ADME
[13] = Selectivity ratio of LD50 for Cytotoxicity against human HEK293 cells to IC50 for Inverse agonist activity at Pseudomonas aeruginosa PqsR; assay type: toxicity, cell-based
[14] = Cytotoxicity against human HEK293 cells assessed as viable cells at 50 uM relative to control; assay type: toxicity, cell-based; conditions: read-out: Activity

Cytochrome P450 2D6, sequence (P10635 whole entry): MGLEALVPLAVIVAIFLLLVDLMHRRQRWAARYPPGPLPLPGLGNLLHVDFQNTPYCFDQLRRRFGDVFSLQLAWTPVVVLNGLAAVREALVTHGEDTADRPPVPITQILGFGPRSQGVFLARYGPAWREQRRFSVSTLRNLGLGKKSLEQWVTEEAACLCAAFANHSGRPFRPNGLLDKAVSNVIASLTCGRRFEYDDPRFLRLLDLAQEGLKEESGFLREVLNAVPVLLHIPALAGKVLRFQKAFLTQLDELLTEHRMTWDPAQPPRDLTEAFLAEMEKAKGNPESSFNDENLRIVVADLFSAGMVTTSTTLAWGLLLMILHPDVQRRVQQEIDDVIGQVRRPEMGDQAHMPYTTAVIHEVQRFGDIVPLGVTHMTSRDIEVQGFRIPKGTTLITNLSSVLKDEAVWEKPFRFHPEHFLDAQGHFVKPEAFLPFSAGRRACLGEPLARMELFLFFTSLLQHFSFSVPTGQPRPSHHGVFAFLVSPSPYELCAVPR
Voltage-gated inwardly rectifying potassium channel KCNH2, sequence (Q12809 whole entry): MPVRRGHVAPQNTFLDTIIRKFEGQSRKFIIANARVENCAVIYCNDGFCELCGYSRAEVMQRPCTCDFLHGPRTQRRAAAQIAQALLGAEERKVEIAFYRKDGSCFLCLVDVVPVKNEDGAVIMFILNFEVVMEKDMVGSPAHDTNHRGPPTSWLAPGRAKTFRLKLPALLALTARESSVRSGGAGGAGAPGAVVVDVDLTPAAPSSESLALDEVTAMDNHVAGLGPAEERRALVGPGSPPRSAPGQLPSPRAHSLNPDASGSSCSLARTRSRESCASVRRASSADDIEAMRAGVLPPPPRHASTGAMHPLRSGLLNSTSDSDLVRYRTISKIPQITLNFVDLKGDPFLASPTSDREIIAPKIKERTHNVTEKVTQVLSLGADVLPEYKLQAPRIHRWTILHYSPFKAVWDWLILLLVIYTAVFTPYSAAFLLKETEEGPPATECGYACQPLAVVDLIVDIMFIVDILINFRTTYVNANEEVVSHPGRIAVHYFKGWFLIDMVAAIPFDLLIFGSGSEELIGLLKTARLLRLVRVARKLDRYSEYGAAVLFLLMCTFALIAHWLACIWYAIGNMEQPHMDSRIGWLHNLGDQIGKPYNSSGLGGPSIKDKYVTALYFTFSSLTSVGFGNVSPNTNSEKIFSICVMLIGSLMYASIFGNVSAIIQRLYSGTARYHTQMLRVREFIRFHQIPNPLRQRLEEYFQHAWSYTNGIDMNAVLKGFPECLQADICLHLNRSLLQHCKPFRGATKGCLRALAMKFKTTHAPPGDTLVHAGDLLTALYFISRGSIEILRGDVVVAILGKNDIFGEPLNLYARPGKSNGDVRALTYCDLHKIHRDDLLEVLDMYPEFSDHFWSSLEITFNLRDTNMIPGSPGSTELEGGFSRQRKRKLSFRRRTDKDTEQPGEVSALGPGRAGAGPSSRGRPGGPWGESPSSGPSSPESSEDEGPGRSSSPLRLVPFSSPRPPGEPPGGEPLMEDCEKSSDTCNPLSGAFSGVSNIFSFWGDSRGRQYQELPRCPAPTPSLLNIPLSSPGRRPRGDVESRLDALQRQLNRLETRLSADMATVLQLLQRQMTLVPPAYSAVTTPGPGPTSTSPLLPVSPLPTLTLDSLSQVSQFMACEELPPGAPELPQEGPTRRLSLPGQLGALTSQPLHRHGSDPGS
Cytochrome P450 3A4, sequence (P08684 whole entry): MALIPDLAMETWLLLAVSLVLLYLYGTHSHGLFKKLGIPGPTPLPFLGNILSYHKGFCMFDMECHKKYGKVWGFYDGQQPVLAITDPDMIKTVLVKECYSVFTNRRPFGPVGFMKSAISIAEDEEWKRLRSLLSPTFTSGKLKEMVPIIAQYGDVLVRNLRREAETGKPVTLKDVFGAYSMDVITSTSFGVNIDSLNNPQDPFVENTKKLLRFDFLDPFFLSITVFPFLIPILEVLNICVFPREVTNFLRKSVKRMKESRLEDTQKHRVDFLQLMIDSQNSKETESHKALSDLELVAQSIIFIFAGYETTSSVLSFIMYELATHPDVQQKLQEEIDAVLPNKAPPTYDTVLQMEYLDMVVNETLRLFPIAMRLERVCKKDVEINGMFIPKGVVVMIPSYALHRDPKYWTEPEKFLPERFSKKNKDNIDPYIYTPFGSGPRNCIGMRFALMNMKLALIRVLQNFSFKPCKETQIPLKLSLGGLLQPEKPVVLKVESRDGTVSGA
Cytochrome P450 2C9, sequence (P11712 whole entry): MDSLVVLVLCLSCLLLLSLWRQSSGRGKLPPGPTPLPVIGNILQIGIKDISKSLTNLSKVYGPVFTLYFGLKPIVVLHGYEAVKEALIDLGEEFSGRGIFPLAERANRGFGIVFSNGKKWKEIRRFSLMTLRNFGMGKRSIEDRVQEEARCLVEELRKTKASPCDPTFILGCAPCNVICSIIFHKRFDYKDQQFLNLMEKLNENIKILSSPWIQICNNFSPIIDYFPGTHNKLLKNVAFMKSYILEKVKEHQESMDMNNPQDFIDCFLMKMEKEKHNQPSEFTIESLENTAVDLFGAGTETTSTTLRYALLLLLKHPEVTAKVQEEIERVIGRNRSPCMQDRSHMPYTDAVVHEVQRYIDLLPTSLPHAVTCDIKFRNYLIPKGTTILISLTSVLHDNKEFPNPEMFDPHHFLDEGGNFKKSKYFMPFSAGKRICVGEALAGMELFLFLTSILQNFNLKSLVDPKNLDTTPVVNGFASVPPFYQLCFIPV
Cytochrome P450 2C19, sequence (P33261 whole entry): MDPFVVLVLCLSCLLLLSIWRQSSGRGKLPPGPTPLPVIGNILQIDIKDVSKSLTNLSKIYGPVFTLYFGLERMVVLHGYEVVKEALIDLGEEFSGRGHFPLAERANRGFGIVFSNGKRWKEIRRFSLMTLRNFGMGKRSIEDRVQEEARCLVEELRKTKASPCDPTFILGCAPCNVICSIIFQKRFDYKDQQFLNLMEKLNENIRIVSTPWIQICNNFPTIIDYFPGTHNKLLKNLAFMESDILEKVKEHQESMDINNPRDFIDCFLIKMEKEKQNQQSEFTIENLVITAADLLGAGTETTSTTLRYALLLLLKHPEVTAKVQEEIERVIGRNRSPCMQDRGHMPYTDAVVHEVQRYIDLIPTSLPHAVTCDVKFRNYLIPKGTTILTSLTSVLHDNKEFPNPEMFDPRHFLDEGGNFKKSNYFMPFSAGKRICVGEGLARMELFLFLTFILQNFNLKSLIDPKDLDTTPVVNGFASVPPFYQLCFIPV

SMILES | IC50 [1] [µM] | half-life at 1 µM [2] [min] | half-life [3] [min] | CC50 [4] [µM] | IC50 (Cytochrome P450 2D6) [µM] | IC50 (CYP1A) [µM] | CC50 [5] [µM] | solubility kinetic at 5 min [6] [µM] | fraction unbound [7] | logD [8] | IC50 (Cytochrome P450 2C9) [µM] | IC50 (Pseudomonas aeruginosa) [µM] | IC50 [9] [µM] | viability at 25 µM [10] [%] | fraction unbound [11] | viability at 25 µM [12] [%] | IC50 (Cytochrome P450 3A4) [µM] | IC50 (Cytochrome P450 2C19) [µM] | selectivity ratio [13] | viability at 50 µM [14] [%]
CC(C)Oc1ccc(-c2ncc(CNc3ccnc(C(F)(F)F)c3)s2)cc1Cl | 0.008 | 20 | > 60 | ~25 | > 25 | > 25 | ~25 | 7 (≈ 3 µg/mL) | < 0.01 | 4.51 | 16.4 | 0.106 | > 25 | 51 | < 0.01 | 49 | > 25 | 17.1 |  | 
CC(C)Oc1ccc(-c2ncc(CNc3ccnc(C#N)c3)s2)cc1Cl | 0.005 | 11 | > 60 | > 25 | > 25 | > 25 | ~50 | 7 (≈ 2.69 µg/mL) | < 0.01 | 4.83 | > 25 | 0.098 | 13.2 |  | < 0.01 | 59 | > 25 | 21.4 | 10000 | 51
